Measured values taken from PubChem BioAssay AID248 (DTP/NCI, 2004).
Values joined by “and” are separate entries in the source; they are usually repeats but may differ in a detail not shown here. Equal values may be shown once. Toxic doses and inconclusive results are not listed. Cut-off read from the data, not from the text of the source: active = T/C of 150% or more; inactive = T/C below 125%.

Test system: L1210 leukemia ip in BDF1 mice, survival T/C
Assay: NCI In Vivo Anticancer Drug Screen. Data for tumor model L1210 Leukemia (intraperitoneal) in B6D2F1 (BDF1) mice
Conditions: endpoint: mean survival time, higher = longer survival
Procedure, shortened: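 In this screen, tumor-bearing mice given compound are compared to those given vehicle, and their survival values are reported as a treated-to-control quotient.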

[1] = dose: 100.0 mg/kg/injection, schedule: Q04DX003 (ip), vehicle: saline with Tween-80
[2] = dose: 200.0 mg/kg/injection, schedule: Q04DX003 (ip), vehicle: saline with Tween-80
[3] = dose: 25.0 mg/kg/injection, schedule: Q04DX002 (ip), vehicle: saline
[4] = dose: 50.0 mg/kg/injection, schedule: Q04DX002 (ip), vehicle: saline
[5] = dose: 100.0 mg/kg/injection, schedule: Q01DX001 (ip), vehicle: other
[6] = dose: 200.0 mg/kg/injection, schedule: Q01DX001 (ip), vehicle: other
[7] = dose: 400.0 mg/kg/injection, schedule: Q01DX001 (ip), vehicle: other
[8] = dose: 50.0 mg/kg/injection, schedule: Q01DX009 (ip), vehicle: Klucel (hydroxypropylcellulose) (HPC)
[9] = dose: 100.0 mg/kg/injection, schedule: Q04DX003 (ip), vehicle: Klucel (hydroxypropylcellulose) (HPC)
[10] = dose: 200.0 mg/kg/injection, schedule: Q04DX003 (ip), vehicle: Klucel (hydroxypropylcellulose) (HPC)

Measured: T/C

COc1cc2c(c3c1c(=O)c1ccccc1n3C)C=CC(C)(C)O2
inactive: dose: 6.0 mg/kg/injection, schedule: Q01DX001 (ip), vehicle: acetone 101 % of control | dose: 7.5 mg/kg/injection, schedule: Q01DX Z (ip), vehicle: other 106 % of control | dose: 12.0 mg/kg/injection, schedule: Q01DX001 (ip), vehicle: acetone 97 % of control | dose: 15.0 mg/kg/injection, schedule: Q01DX001 (ip), vehicle: other 97 % of control | dose: 15.0 mg/kg/injection, schedule: Q01DX Z (ip), vehicle: other 114 % of control | dose: 25.0 mg/kg/injection, schedule: Q01DX001 (ip), vehicle: acetone 105 % of control | dose: 30.0 mg/kg/injection, schedule: Q01DX001 (ip), vehicle: other 94 % of control | dose: 30.0 mg/kg/injection, schedule: Q01DX Z (ip), vehicle: other 122 % of control | dose: 50.0 mg/kg/injection, schedule: Q01DX001 (ip), vehicle: acetone 118 % of control | dose: 50.0 mg/kg/injection, schedule: Q01DX009 (ip), vehicle: acetone 103 % of control | dose: 60.0 mg/kg/injection, schedule: Q01DX001 (ip), vehicle: other 105 % of control | dose: 60.0 mg/kg/injection, schedule: Q01DX Z (ip), vehicle: other 103 % of control | dose: 100.0 mg/kg/injection, schedule: Q01DX001 (ip), vehicle: acetone 114 % of control | dose: 100.0 mg/kg/injection, schedule: Q01DX009 (ip), vehicle: acetone 91 % of control | dose: 120.0 mg/kg/injection, schedule: Q01DX001 (ip), vehicle: other 105 % of control | dose: 400.0 mg/kg/injection, schedule: Q01DX001 (ip), vehicle: acetone 116 % of control

c1ccc(C(C(=Nc2ccc(Cc3ccc(N=C(C(c4ccccc4)c4ccccc4)N4CC4)cc3)cc2)N2CC2)c2ccccc2)cc1
inactive: dose: 70.0 mg/kg/injection, schedule: Q01DX009 (ip), vehicle: saline 103 % of control | dose: 140.0 mg/kg/injection, schedule: Q01DX009 (ip), vehicle: saline 104 % of control | dose: 280.0 mg/kg/injection, schedule: Q01DX009 (ip), vehicle: saline 93 % of control

O=C1C(=O)C(CCc2ccccc2)C(=O)/C1=C\c1ccccc1 (stereo not drawn)
inactive: [1] 95 % of control | [2] 86 % of control

OCC(O)COc1ccc(Cl)cc1Cl (stereo not drawn)
inactive: dose: 100.0 mg/kg/injection, schedule: Q01DX009 (ip), vehicle: saline with Tween-80 105 % of control | dose: 200.0 mg/kg/injection, schedule: Q01DX009 (ip), vehicle: saline with Tween-80 101 % of control

Cc1cncn1Cc1ccc([N+](=O)[O-])cc1
inactive: dose: 25.0 mg/kg/injection, schedule: Q01DX009 (ip), vehicle: saline 101 % of control and 102 % of control | [3] 106 % of control and 115 % of control | dose: 50.0 mg/kg/injection, schedule: Q01DX009 (ip), vehicle: saline 98 % of control and 108 % of control | [4] 97 % of control and 100 % of control | dose: 100.0 mg/kg/injection, schedule: Q01DX009 (ip), vehicle: saline 96 % of control

O=C1C(=O)c2ccccc2C(O)=C1CN1CCC1
inactive: dose: 100.0 mg/kg/injection, schedule: Q01DX001 (ip), vehicle: saline with Tween-80 95 % of control | dose: 200.0 mg/kg/injection, schedule: Q01DX001 (ip), vehicle: saline with Tween-80 95 % of control

C/C=C/C1N(C)CCCN1C
inactive: dose: 25.0 mg/kg/injection, schedule: Q01DX009 (ip), vehicle: saline with Tween-80 97 % of control | dose: 25.0 mg/kg/injection, schedule: Q04DX003 (ip), vehicle: saline with Tween-80 102 % of control | dose: 50.0 mg/kg/injection, schedule: Q01DX009 (ip), vehicle: saline with Tween-80 98 % of control | dose: 50.0 mg/kg/injection, schedule: Q04DX003 (ip), vehicle: saline with Tween-80 93 % of control | [1] 91 % of control

CCNCCNCC(Cc1ccccc1)c1ccccc1 (stereo not drawn)
inactive: [3] 86 % of control | [4] 105 % of control | dose: 100.0 mg/kg/injection, schedule: Q04DX002 (ip), vehicle: saline 93 % of control and 92 % of control

CC1(C)OC2CS(=O)(=O)CC2O1 (stereo not drawn)
inactive: [1] 100 % of control | [2] 105 % of control | dose: 400.0 mg/kg/injection, schedule: Q04DX003 (ip), vehicle: saline with Tween-80 102 % of control

NC(N)=NCCCC(N)C(=O)NCCCCCCNCCCCCCNC(=O)C(N)CCCN=C(N)N (stereo not drawn)
inactive: dose: 1.25 mg/kg/injection, schedule: Q01DX Z (ip), vehicle: saline 96 % of control | dose: 2.5 mg/kg/injection, schedule: Q01DX Z (ip), vehicle: saline 94 % of control | dose: 5.0 mg/kg/injection, schedule: Q01DX Z (ip), vehicle: saline 98 % of control | dose: 10.0 mg/kg/injection, schedule: Q01DX Z (ip), vehicle: saline 96 % of control

COC(=O)c1ccc2cc(OC)cc([N+](=O)[O-])c2n1
inactive: dose: 50.0 mg/kg/injection, schedule: Q01DX001 (ip), vehicle: carboxymethylcellulose (CMC) 87 % of control | dose: 100.0 mg/kg/injection, schedule: Q01DX001 (ip), vehicle: carboxymethylcellulose (CMC) 93 % of control | dose: 200.0 mg/kg/injection, schedule: Q01DX001 (ip), vehicle: carboxymethylcellulose (CMC) 102 % of control | dose: 400.0 mg/kg/injection, schedule: Q01DX001 (ip), vehicle: carboxymethylcellulose (CMC) 93 % of control

CN(N=O)C(=O)NCCSc1ncnc2nc[nH]c12
inactive: dose: 6.25 mg/kg/injection, schedule: Q01DX Z (ip), vehicle: carboxymethylcellulose (CMC) 103 % of control | dose: 12.5 mg/kg/injection, schedule: Q01DX Z (ip), vehicle: carboxymethylcellulose (CMC) 95 % of control | dose: 25.0 mg/kg/injection, schedule: Q01DX Z (ip), vehicle: carboxymethylcellulose (CMC) 107 % of control | dose: 50.0 mg/kg/injection, schedule: Q01DX Z (ip), vehicle: carboxymethylcellulose (CMC) 119 % of control

C[n+]1c(I)ccc2ccccc21
inactive: [5] 105 % of control | [6] 105 % of control | [7] 110 % of control

CC(C)(C)OOC(=O)c1ccccc1
inactive: dose: 25.0 mg/kg/injection, schedule: Q01DX009 (ip), vehicle: Klucel (hydroxypropylcellulose) (HPC) 96 % of control | dose: 50.0 mg/kg/injection, schedule: Q01DX001 (ip), vehicle: other 90 % of control | [8] 97 % of control | dose: 75.0 mg/kg/injection, schedule: Q01DX009 (ip), vehicle: Klucel (hydroxypropylcellulose) (HPC) 97 % of control and 101 % of control | [5] 100 % of control | [9] 107 % of control | [6] 102 % of control | [10] 115 % of control | [7] 94 % of control | dose: 400.0 mg/kg/injection, schedule: Q04DX003 (ip), vehicle: Klucel (hydroxypropylcellulose) (HPC) 96 % of control

CCNC(=O)SCCSC(=O)NCC
inactive: dose: 100.0 mg/kg/injection, schedule: Q01DX009 (ip), vehicle: other 92 % of control | dose: 200.0 mg/kg/injection, schedule: Q01DX009 (ip), vehicle: other 93 % of control | dose: 400.0 mg/kg/injection, schedule: Q01DX009 (ip), vehicle: other 92 % of control

CCCC1=C(CCC)C1C(=O)O
inactive: [8] 91 % of control | dose: 100.0 mg/kg/injection, schedule: Q01DX009 (ip), vehicle: Klucel (hydroxypropylcellulose) (HPC) 100 % of control | [9] 103 % of control | dose: 200.0 mg/kg/injection, schedule: Q01DX009 (ip), vehicle: Klucel (hydroxypropylcellulose) (HPC) 88 % of control | [10] 96 % of control

CCOC(=O)NC1=C(N2CC2(C)C)C(=O)C(NC(=O)OCC)=C(N2CC2(C)C)C1=O
inactive: dose: 0.93 mg/kg/injection, schedule: Q01DX009 (ip), vehicle: saline 94 % of control and 110 % of control | dose: 1.87 mg/kg/injection, schedule: Q01DX009 (ip), vehicle: saline 100 % of control and 91 % of control | dose: 3.75 mg/kg/injection, schedule: Q01DX009 (ip), vehicle: saline 96 % of control and 102 % of control | dose: 7.5 mg/kg/injection, schedule: Q01DX009 (ip), vehicle: saline 102 % of control and 107 % of control | dose: 15.0 mg/kg/injection, schedule: Q01DX009 (ip), vehicle: saline 96 % of control and 89 % of control | dose: 30.0 mg/kg/injection, schedule: Q01DX009 (ip), vehicle: saline 100 % of control and 102 % of control

CCOC(=O)C(O)(C#CC(C)C)C1CCCCC1 (stereo not drawn)
inactive: [5] 94 % of control | [6] 89 % of control | [7] 94 % of control
